Assays:
[1] = test system: disseminated colorectal cancer; experiment: Clinical outcome (response and survival) to protracted infusion of 5-FU in colorectal cancer patients by TS genotype; format: in vivo, human
Procedure: To explore the role of SNP as a predictive marker, 40 patients were evaluated with disseminated colorectal cancer (SWOG 9420 and 3C-92-2) for response and survival to protracted infusion of 5-fluorouracil. The distribution of the TS tandem repeat polymorphism was as follows: 2R/2R 20% (8/40), 2R/3R 50% (20/40), and 3R/3R 30% (12/40). […] This relationship also lacked statistical significant (P=0.14, Logrank Test).
Patient samples were re-classified into two groups based on predicted high and low TS expression using the tandem repeat polymorphism and the SNP. Since it was hypothesized that the SNP, or variant 3R (3RV) allele, would decrease the TS gene expression of a 3R allele, 21 patients were grouped with genotypes of 2R/2R, 2R/3RV and 3RV/3RV into the predicted “low TS expression” group (Group A) and 19 patients with 2R/3R, 3R/3RV, and 3R/3R into the predicted “high TS expression” group (Group B). These groups were then re-evaluated for an association between TS genotypes and clinical outcome to 5-FU chemotherapy.
The presence of the new SNP within the TS gene was confirmed in Non-Hispanic Whites. Individuals (disease-free controls) were initially recruited for a cancer case-control study in California as described in Castelao et al., 2001. Patients included in this study has metastatic colorectal cancer and were enrolled in the following protocols: Southwest Oncology Group protocol 9420 (19 patients, 5-FU doses used: CI (continuous infusion) 300 mg/m^2/d v. CI 2600 mg/m^2/d q weekly) opened for accrual in May 1995 and closed in May 1999; and the University of Southern California protocol: 3C-92-2 (21 patients, 5-FU doses used: CI 200 mg/m^2/d q weekly for three weeks followed by one week rest) opened for accrual in September 1992 and closed in June 1995. All patients signed an informed consent to participate in the clinical trial and for evaluation of the TS polymorphism. Genotyping for the TS polymorphism was performed on paraffin-embedded tissues in all patients.
All patients had bi-dimensionally measurable disease at the time of protocol entry. Responders to therapy were classified as those patients whose tumor burden (the sum, overall measurable lesions of the products of the largest diameter and its perpendicular diameter) decreased by 50% or more for at least six weeks. Progressive disease was defined as 25% or more increase in tumor burden (compared to the smallest measurement) or the appearance of new lesions.
Survival was computed as the number of months from the initiation of chemotherapy with 5-FU to death of any cause. Patients who were alive at the last follow-up evaluation were censored at that time.
Contingency tables and Fisher's exact test (Metha et al., 1983) were used to summarize the association of response (grouped as response, stable disease, and progressive disease) to 5-FU with the TS genotypes. Kaplan-Meier plots (Kaplan et al., 1958) and the log-rank test (Miller et al., 1981) were used to compare survival of patients according to TS genotypes. Median survival was calculated based on the Kaplan-Meier estimator. All p-values are two-sided.

[2] = molecular target: T1, USF-1 phosphorylated by cdc2/p34 (Homo sapiens, UniProt P22415 P22415:1-310); experiment: EMSA; 1 mM MgCl2, 50 mM NaCl, room temperature; abolished by USF-1 specific competitor; conditions: tags: N-terminal 6xHis (pProEX-HTb, E. coli), in vitro phosphorylated with cdc2/p34; chain copies: 2; label: 32P
Procedure: To determine the ability of the phosphorylated form of USF-1 to bind to its consensus element within the TS repeat, an EMSA assay was carried out using the ³²P-labeled 28 bp sequence as a probe corresponding to one tandem repeat containing an intact E-box site. Lane 1 was free probe. In lane 2, 30 ng of recombinant USF-1 was incubated with probe in the absence of unlabeled competitor oligonucleotides. In lane 3, 30 ng of phospho-USF-1 was incubated with probe in the absence of unlabeled competitor oligonucleotides. In lanes 4-6, phospho-USF-1 was pre-incubated with 500 molar excess of: unlabeled probe, USF-1 specific competitor, and non-specific poly (dIdC) competitor oligonucleotides, respectively. Incubation of the phosphorylated form of USF-1 with the probe caused a shift on the gel that was abolished by the addition of unlabeled specific competitor oligonucleotides (FIG. 3C, lanes 3 and 5).
Synthetic double-stranded oligonucleotides (Integrated DNA Technologies) corresponding to a wild type (R) or variant (RV) 28 bp tandem repeat sequence from the TS 5′ regulatory region were labeled with [γ-³²P] ATP (Amersham Pharmacia Biotech) according to the Gel-Shift Assay Kit protocol (Promega). […]

[3] = molecular target: T1, USF-1 phosphorylated by cdc2/p34; experiment: EMSA; 1 mM MgCl2, 50 mM NaCl, room temperature; conditions: tags: N-terminal 6xHis (pProEX-HTb, E. coli), in vitro phosphorylated with cdc2/p34; chain copies: 2; label: 32P
Procedure: Since the potential G→C SNP at the 12th nucleotide of the 28 bp repeats lies within the USF binding site, the ability of the recombinant USF-1 protein to bind the variant consensus element by EMSA was tested. […] Gel mobility shift analyses were performed using recombinant USF-1 with a ³²P-labeled 28 bp probe corresponding to one tandem repeat containing a G→C base change at the 12th nucleotide. Lane 1 was free probe. In lane 2, 30 ng of recombinant USF-1 was incubated with probe. In lane 3, 30 ng of phospho-USF-1 was incubated with probe.
(§1) Synthetic double-stranded oligonucleotides (Integrated DNA Technologies) corresponding to a wild type (R) or variant (RV) 28 bp tandem repeat sequence from the TS 5′ regulatory region were labeled with [γ-³²P] ATP (Amersham Pharmacia Biotech) according to the Gel-Shift Assay Kit protocol (Promega). For each gel shift reaction, 10,000 cpm of labeled probe 30 ng of recombinant USF-1 for 20 min at room temperature in a 20 μl reaction mixture containing 10 mM Tris-HCl, pH 7.5, 50 mM NaCl, 0.5 mM dithiothreitol, 0.5 mM EDTA, 4% glycerol, 1 mM MgCl₂ and 0.1 μg of poly(dIdC) DNA. Where indicated, unlabeled competitor oligonucleotides were incubated for 10 min at room temperature with nuclear extracts prior to addition of labeled probe.
Reactions using recombinant USF-1 contained ˜30 ng of either USF-1 or phospho USF-1. […]

[4] = molecular target: T1, USF-1 phosphorylated by cdc2/p34; experiment: EMSA; consensus probe; sequence taken from the listed USF-1 specific oligonucleotide; conditions: tags: N-terminal 6xHis (pProEX-HTb, E. coli), in vitro phosphorylated with cdc2/p34; chain copies: 2; label: 32P when used as probe
Procedure: When both forms of USF-1 were used in an EMSA assay utilizing the perfect USF-1 consensus element as a probe, only the phosphorylated form was able to bind (FIG. 3B, lanes 2 and 3). Gel mobility shift analyses were performed using recombinant USF-1 with a ³²P-labeled USF-1 specific consensus probe containing an intact E-box site. Lane 1 contained only free probe. Lane 2 was 30 ng of recombinant phospho-USF-1 incubated with probe in the absence of unlabeled competitor oligonucleotides. Lane 3 contained 30 ng of recombinant unphosphorylated USF-1 incubated with probe in the absence of unlabeled specific competitor oligonucleotides. In lanes 4-5, phospho-USF-1 was pre-incubated with 500 molar excess of unlabeled USF-1 specific competitor oligonucleotide and 500 molar excess of nonspecific dIdC competitor, respectively.
as §1, with “Where indicated, unlabeled competitor oligonucleotides were incubated for 10 min at room temperature with nuclear extracts prior to addition of labeled probe.” left out

[5] = patients with TS genotype 2R/2R (n = 8)
[6] = patients with TS genotype 2R/3R (n = 20)
[7] = patients with TS genotype 3R/3R (n = 12)

T1 sequence (P22415 whole entry, one chain of several): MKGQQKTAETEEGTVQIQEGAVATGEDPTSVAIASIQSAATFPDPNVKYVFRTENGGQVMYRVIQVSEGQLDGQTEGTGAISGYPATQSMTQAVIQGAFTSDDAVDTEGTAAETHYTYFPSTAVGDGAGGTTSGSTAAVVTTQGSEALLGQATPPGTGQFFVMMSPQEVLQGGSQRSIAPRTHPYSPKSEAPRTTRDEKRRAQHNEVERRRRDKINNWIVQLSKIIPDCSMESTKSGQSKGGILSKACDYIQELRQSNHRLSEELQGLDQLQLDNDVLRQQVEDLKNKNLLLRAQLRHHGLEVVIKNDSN

Q: With O=c1[nH]cc(F)c(=O)[nH]1 [5-FU, 5-fluorouracil] as the molecule, how does the median survival ([1]; 3R/3R carriers) read?
A: The median survival was 8.4 months.

Q: What about the survival ([1]; Group A, predicted low TS expression (2R/2R, 2R/3RV, 3RV/3RV)) of the same molecule?
A: Its survival is 10.1 months.

Q: And the “Clinical Response: Stable Disease” value ([1]; Group A, predicted low TS expression: 2R/2R, 2R/3RV, 3RV/3RV (n = 21))?
A: The value was 4 (19%).

Q: What about the survival ([1]; Group B, predicted high TS expression (2R/3R, 3R/3RV, 3R/3R)) of the same molecule?
A: The survival was 7.4 months.

Q: And the “Clinical Response: Stable Disease” value ([1]; Group B, predicted high TS expression: 2R/3R, 3R/3R, 3R/3RV (n = 19))?
A: The value was 7 (37%).

Q: And the median survival ([1]; heterozygous group (2R/3R))?
A: The median survival was 7.4 months.

Q: And the median survival ([1]; patients with TS genotype 2R/2R)?
A: The median survival was 16.2 months.

Q: And the “Clinical Response: Progression” value [1, 5]?
A: The value was 3 (37%).

Q: And the “Clinical Response: Stable Disease” value [1, 5]?
A: Its value is 1 (13%).

Q: And the “Clinical Response: Progression” value [1, 6]?
A: The value was 12 (60%).

Q: What about the “Clinical Response: Stable Disease” value [1, 6] of the same molecule?
A: The value was 5 (25%).

Q: And the “disease response (patients responding/total)” value ([1]; patients with TS genotype 3R/3R)?
A: Its value is 0/12.

Q: And the “Clinical Response: Progression” value [1, 7]?
A: Its value is 7 (58%).

Q: What about the “Clinical Response: Response” value [1, 7] of the same molecule?
A: The value was 0 (0%).

Q: And the “Clinical Response: Stable Disease” value [1, 7]?
A: The value was 5 (42%).

B1: TS wild-type tandem repeat (R) (dsDNA)
DNA 1: CCGCGCCACTTGGCCTGCCTCCGTCCCG
DNA 2: CGGGACGGAGGCAGGCCAAGTGGCGCGG
Q: Does B1 bind [2]?
A: Result: binds

B2: TS variant tandem repeat (RV) (dsDNA)
DNA 1: CCGCGCCACTTCGCCTGCCTCCGTCCCG
DNA 2: CGGGACGGAGGCAGGCGAAGTGGCGCGG
Q: Does B2 bind [3]?
A: Result: no binding

B3: USF-1 consensus oligonucleotide (dsDNA)
DNA 1: CACCCGGTCACGTGGCCTACACC
DNA 2: GGTGTAGGCCACGTGACCGGGTG
Q: Does B3 bind [4]?
A: Result: binds

From US20060051764A1, “Thymidylate synthase polymorphisms for use in screening for cancer susceptibility” (priority 2002, published 2006)
